As usually defined, the Ki is the dissociation constant of the complex between target and ligand, obtained from inhibition or displacement. A low value points to tighter binding.

This assay has as its target T1, h-GABAA α2β2γ1 (Homo sapiens, UniProt P47869+Q8N1C3).
T1 sequence (P47869 29-451): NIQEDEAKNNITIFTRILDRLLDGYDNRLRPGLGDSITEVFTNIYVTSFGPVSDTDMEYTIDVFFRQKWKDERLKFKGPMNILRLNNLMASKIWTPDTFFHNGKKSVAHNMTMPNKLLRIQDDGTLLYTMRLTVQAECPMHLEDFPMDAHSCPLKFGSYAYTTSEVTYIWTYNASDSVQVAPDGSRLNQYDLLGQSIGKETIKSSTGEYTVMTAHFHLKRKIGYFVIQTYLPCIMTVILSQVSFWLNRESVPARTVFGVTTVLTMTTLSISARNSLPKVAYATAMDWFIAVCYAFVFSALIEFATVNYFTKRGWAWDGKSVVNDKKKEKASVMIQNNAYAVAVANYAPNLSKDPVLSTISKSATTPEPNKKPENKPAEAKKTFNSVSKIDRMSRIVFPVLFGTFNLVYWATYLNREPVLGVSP
T1 sequence (P47870 25-512 partner limits assumed): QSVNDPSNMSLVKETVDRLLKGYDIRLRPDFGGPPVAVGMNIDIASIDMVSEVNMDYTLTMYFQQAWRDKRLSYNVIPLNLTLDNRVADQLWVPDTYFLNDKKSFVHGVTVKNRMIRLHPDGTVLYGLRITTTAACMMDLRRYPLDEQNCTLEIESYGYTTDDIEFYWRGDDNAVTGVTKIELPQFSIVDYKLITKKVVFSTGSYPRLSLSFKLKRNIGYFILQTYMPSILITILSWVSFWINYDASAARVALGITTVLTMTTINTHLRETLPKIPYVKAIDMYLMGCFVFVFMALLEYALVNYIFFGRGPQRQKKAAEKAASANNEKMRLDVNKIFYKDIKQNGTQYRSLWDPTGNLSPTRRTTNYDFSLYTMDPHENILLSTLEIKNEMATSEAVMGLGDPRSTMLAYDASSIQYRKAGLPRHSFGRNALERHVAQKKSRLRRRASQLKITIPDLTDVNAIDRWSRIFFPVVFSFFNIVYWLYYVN
T1 sequence (Q8N1C3 36-465): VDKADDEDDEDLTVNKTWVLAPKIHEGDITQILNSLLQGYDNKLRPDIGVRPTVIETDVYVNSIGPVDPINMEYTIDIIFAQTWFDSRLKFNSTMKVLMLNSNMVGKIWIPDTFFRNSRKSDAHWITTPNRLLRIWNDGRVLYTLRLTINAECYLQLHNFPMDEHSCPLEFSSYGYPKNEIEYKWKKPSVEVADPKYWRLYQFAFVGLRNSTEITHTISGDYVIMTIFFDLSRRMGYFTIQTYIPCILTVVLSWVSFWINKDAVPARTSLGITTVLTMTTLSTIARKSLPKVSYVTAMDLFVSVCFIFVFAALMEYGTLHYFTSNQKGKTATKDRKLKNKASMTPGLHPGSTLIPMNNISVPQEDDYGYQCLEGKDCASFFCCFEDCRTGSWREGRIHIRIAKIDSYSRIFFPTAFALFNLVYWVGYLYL
Kind of assay: Radioligand binding assay, [3H]RO7239181 competition, HEK293F membranes. Details: signal peptide of human GABAA α5 subunit (Met1 to Ser31), replacing the α2 signal peptide (N); expressed in transfected cells; host or cells: HEK293F cells (ThermoFisher R79007), membranes.
Turning to `Cc1nnc2n1-c1ccc(C(F)(F)F)c(Cl)c1C(c1c(F)cccc1F)=NC2` [Example 40, 7-chloro-6-(2,6-difluorophenyl)-1-methyl-8-(trifluoromethyl)-4H-[1,2,4]triazolo[4,3-a][1,4]benzodiazepine], affinity was put at a Ki of 26.8 nM.
Then `Fc1cccnc1C1=NCc2nnc(-c3ccncn3)n2-c2ccc(Cl)c(Cl)c21` [Example 55, 7,8-dichloro-6-(3-fluoro-2-pyridyl)-1-pyrimidin-4-yl-4H-[1,2,4]triazolo[4,3-a][1,4]benzodiazepine], with 18.5 nM; and `Fc1cccc(F)c1C1=NCc2nnc(-c3cccnn3)n2-c2ccc(Br)c(Br)c21` [Example 42, 7,8-dibromo-6-(2,6-difluorophenyl)-1-pyridazin-3-yl-4H-[1,2,4]triazolo[4,3-a][1,4]benzodiazepine], with 5.5 nM.
Then `Fc1ccccc1C1=NCc2nncn2-c2ccc(Br)c(Cl)c21` [Example 8, 8-bromo-7-chloro-6-(2-fluorophenyl)-4H-[1,2,4]triazolo[4,3-a][1,4]benzodiazepine], with 47.6 nM; and `OCc1nnc2n1-c1ccc(Br)c(Cl)c1C(c1c(F)cccc1F)=NC2` [Example 33, [8-bromo-7-chloro-6-(2,6-difluorophenyl)-4H-[1,2,4]triazolo[4,3-a][1,4]benzodiazepin-1-yl]methanol], with 12.7 nM; and `Fc1cccnc1C1=NCc2nnc(-c3ccncn3)n2-c2ccc(Br)c(Cl)c21` [Example 46, 8-bromo-7-chloro-6-(3-fluoro-2-pyridyl)-1-pyrimidin-4-yl-4H-[1,2,4]triazolo[4,3-a][1,4]benzodiazepine], with 25.3 nM.
Then `Cc1nnc2n1-c1ccc(C(F)F)c(Cl)c1C(c1c(F)cccc1F)=NC2` [Example 25, 7-chloro-8-(difluoromethyl)-6-(2,6-difluorophenyl)-1-methyl-4H-[1,2,4]triazolo[4,3-a][1,4]benzodiazepine], with 49.2 nM.
`Fc1ccccc1C1=NCc2nnc(-c3cccnn3)n2-c2ccc(Cl)c(Cl)c21` [Example 10, 7,8-dichloro-6-(2-fluorophenyl)-1-pyridazin-3-yl-4H-[1,2,4]triazolo[4,3-a][1,4]benzodiazepine] had a Ki of 9.5 nM.
As to `Cc1nnc2n1-c1ccc(C3CC3)c(Cl)c1C(c1c(F)cccc1F)=NC2` [Example 6, 7-chloro-8-cyclopropyl-6-(2,6-difluorophenyl)-1-methyl-4H-[1,2,4]triazolo[4,3-a][1,4]benzodiazepine], affinity was put at a Ki of 93.3 nM.
Then `Cc1nnc2n1-c1ccc(I)c(Cl)c1C(c1c(F)cccc1F)=NC2` [Example 41, 7-chloro-6-(2,6-difluorophenyl)-8-iodo-1-methyl-4H-[1,2,4]triazolo[4,3-a][1,4]benzodiazepine], with 5.5 nM; and `Fc1cccnc1C1=NCc2nncn2-c2ccc(Br)c(Cl)c21` [Example 29, 8-bromo-7-chloro-6-(3-fluoro-2-pyridyl)-4H-[1,2,4]triazolo[4,3-a][1,4]benzodiazepine], with 47.4 nM.
Then `Fc1cccc(F)c1C1=NCc2nnc(-c3cccnn3)n2-c2ccc(I)c(Cl)c21` [Example 39, 7-chloro-6-(2,6-difluorophenyl)-8-iodo-1-pyridazin-3-yl-4H-[1,2,4]triazolo[4,3-a][1,4]benzodiazepine], with 4.2 nM; and `Cn1cc(-c2nnc3n2-c2ccc(C(F)(F)F)c(Cl)c2C(c2ncccc2F)=NC3)cn1` [Example 70, 7-chloro-6-(3-fluoro-2-pyridyl)-1-(1-methylpyrazol-4-yl)-8-(trifluoromethyl)-4H-[1,2,4]triazolo[4,3-a][1,4]benzodiazepine], with 41.4 nM.
Then `COCCc1nnc2n1-c1ccc(Cl)c(Cl)c1C(c1c(F)cccc1F)=NC2` [Example 19, 7,8-dichloro-6-(2,6-difluorophenyl)-1-(2-methoxyethyl)-4H-[1,2,4]triazolo[4,3-a][1,4]benzodiazepine], with 26 nM; and `Fc1cccc(F)c1C1=NCc2nnc(-c3ccncn3)n2-c2ccc(Cl)c(Cl)c21` [Example 12, 7,8-dichloro-6-(2,6-difluorophenyl)-1-pyrimidin-4-yl-4H-[1,2,4]triazolo[4,3-a][1,4]benzodiazepine], with 10.4 nM; and `COc1ccc2c(c1Cl)C(c1c(F)cccc1F)=NCc1nnc(C3CC3)n1-2` [Example 79, 7-chloro-1-cyclopropyl-6-(2,6-difluorophenyl)-8-methoxy-4H-[1,2,4]triazolo[4,3-a][1,4]benzodiazepine], with 51.2 nM.
`COc1ccc2c(c1Cl)C(c1c(F)cccc1F)=NCc1nnc(-c3cccnn3)n1-2` [Example 57, 7-chloro-6-(2,6-difluorophenyl)-8-methoxy-1-pyridazin-3-yl-4H-[1,2,4]triazolo[4,3-a][1,4]benzodiazepine] displayed a Ki of 57.9 nM.
As for `Fc1cccc(F)c1C1=NCc2nnc(-c3ccncn3)n2-c2ccc(Br)c(Br)c21` [Example 43, 7,8-dibromo-6-(2,6-difluorophenyl)-1-pyrimidin-4-yl-4H-[1,2,4]triazolo[4,3-a][1,4]benzodiazepine], the figure is 5.8 nM; as for `Fc1cccnc1C1=NCc2nnc(-c3cccnn3)n2-c2ccc(Cl)c(Cl)c21` [Example 54, 7,8-dichloro-6-(3-fluoro-2-pyridyl)-1-pyridazin-3-yl-4H-[1,2,4]triazolo[4,3-a][1,4]benzodiazepine], 30.2 nM.
`Cn1cc(-c2nnc3n2-c2ccc(Cl)c(Cl)c2C(c2c(F)cccc2F)=NC3)cn1` [Example 28, 7,8-dichloro-6-(2,6-difluorophenyl)-1-(1-methylpyrazol-4-yl)-4H-[1,2,4]triazolo[4,3-a][1,4]benzodiazepine] showed a Ki of 9.4 nM.
As for `Fc1cccc(F)c1C1=NCc2nnc(-c3cccnn3)n2-c2ccc(C(F)(F)F)c(Cl)c21` [Example 38, 7-chloro-6-(2,6-difluorophenyl)-1-pyridazin-3-yl-8-(trifluoromethyl)-4H-[1,2,4]triazolo[4,3-a][1,4]benzodiazepine], the figure is 12.6 nM.
Then `Fc1cccnc1C1=NCc2nnc(-c3ccncn3)n2-c2ccc(C(F)(F)F)c(Cl)c21` [Example 69, 7-chloro-6-(3-fluoro-2-pyridyl)-1-pyrimidin-4-yl-8-(trifluoromethyl)-4H-[1,2,4]triazolo[4,3-a][1,4]benzodiazepine], with 63.6 nM; and `Cc1nnc2n1-c1ccc(Cl)c(Cl)c1C(c1c(F)cccc1F)=NC2` [Example 5, 7,8-dichloro-6-(2,6-difluorophenyl)-1-methyl-4H-[1,2,4]triazolo[4,3-a][1,4]benzodiazepine], with 6.6 nM; and `Cc1ccc2c(c1Cl)C(c1c(F)cccc1F)=NCc1nnc(-c3cccnn3)n1-2` [Example 48, 7-chloro-6-(2,6-difluorophenyl)-8-methyl-1-pyridazin-3-yl-4H-[1,2,4]triazolo[4,3-a][1,4]benzodiazepine], with 8.3 nM.
The compound `Cc1ccc2c(c1Cl)C(c1c(F)cccc1F)=NCc1nncn1-2` [Example 17, 7-chloro-6-(2,6-difluorophenyl)-8-methyl-4H-[1,2,4]triazolo[4,3-a][1,4]benzodiazepine] registered a Ki of 19.8 nM.
As for `O=c1[nH]nc2n1-c1ccc(Br)c(Cl)c1C(c1c(F)cccc1F)=NC2` [Example 13, 8-bromo-7-chloro-6-(2,6-difluorophenyl)-2,4-dihydro-[1,2,4]triazolo[4,3-a][1,4]benzodiazepin-1-one], the figure is 6.2 nM; as for `O=c1[nH]nc2n1-c1ccc(Cl)c(Cl)c1C(c1ncccc1F)=NC2` [Example 59, 7,8-dichloro-6-(3-fluoro-2-pyridyl)-2,4-dihydro-[1,2,4]triazolo[4,3-a][1,4]benzodiazepin-1-one], 26.3 nM; as for `Fc1cccc(F)c1C1=NCc2nnc(-c3cccnn3)n2-c2ccc(Cl)c(Cl)c21` [Example 14, 7,8-dichloro-6-(2,6-difluorophenyl)-1-pyridazin-3-yl-4H-[1,2,4]triazolo[4,3-a][1,4]benzodiazepine], 3.4 nM.

Values taken from patent publication US20230141603A1, “BENZODIAZEPINE DERIVATIVES AS GABA A GAMMA1 PAM” (Hoffmann-La Roche Inc., priority 2021, published 2023).
